The target in experiment [1] is MAGL (Mus musculus (Mouse), UniProt O35678). The experiment in a line: In vitro competitive activity-based protein profiling, MAGL (mouse). The following applies: for inhibition at 1 µM: read-out: MAGL % inh. 1 μM (mouse). In kind it is biochemical. Here is the method: (§1) In Vitro Competitive Activity-Based Protein Profiling.
(§2) Proteomes (mouse brain membrane fraction or cell lysates for mouse assays; human prefrontal cortex or cell membrane fractions for human assays) (50 μL, 1.0 mg/mL total protein concentration) were preincubated with varying concentrations of inhibitors at 37° C. After 30 min, FP—Rh or HT-01 (1.0 μL, 50 μM in DMSO) was added and the mixture was incubated for another 30 min at 37° C. Reactions were quenched with SDS loading buffer (15 μL-4×) and run on SDS-PAGE. Following gel imaging, serine hydrolase activity was determined by measuring fluorescent intensity of gel bands corresponding to MAGL and FAAH using ImageJ 1.43u software.

Experiment [2] concerns the target FAAH (Mus musculus (Mouse), UniProt O08914). Nature of the experiment: In vitro competitive activity-based protein profiling, FAAH (mouse). In kind it is biochemical. The following applies: for inhibition at 1 µM: read-out: FAAH % inh. 1 μM (mouse). How it is done: as §1, §2

Chain of FAAH (O08914 whole entry): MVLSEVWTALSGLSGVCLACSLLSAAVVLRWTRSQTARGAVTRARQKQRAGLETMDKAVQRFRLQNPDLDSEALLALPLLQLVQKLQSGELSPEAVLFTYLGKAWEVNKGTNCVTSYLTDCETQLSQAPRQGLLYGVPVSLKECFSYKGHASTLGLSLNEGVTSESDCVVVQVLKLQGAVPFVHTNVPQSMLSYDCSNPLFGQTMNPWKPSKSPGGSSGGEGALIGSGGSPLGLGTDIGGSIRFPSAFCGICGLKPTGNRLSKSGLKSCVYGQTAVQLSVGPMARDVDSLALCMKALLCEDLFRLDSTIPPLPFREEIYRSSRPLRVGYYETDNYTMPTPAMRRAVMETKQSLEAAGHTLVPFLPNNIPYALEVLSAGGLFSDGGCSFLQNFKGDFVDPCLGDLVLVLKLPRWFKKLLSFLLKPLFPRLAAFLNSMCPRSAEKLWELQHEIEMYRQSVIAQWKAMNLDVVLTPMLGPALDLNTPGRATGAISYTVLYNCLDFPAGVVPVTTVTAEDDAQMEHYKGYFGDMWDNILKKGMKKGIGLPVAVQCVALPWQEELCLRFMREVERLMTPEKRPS
Chain of MAGL (O35678 whole entry): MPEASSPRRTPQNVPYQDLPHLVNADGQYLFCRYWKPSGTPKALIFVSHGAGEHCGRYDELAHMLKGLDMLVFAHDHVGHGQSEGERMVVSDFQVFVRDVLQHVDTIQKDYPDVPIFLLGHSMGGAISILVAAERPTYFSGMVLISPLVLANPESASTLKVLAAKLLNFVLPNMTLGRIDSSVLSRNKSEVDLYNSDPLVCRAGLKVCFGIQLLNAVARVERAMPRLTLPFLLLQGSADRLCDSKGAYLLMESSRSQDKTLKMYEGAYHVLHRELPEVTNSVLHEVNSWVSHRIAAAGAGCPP

As for `CC(=O)N(C)c1cnn(C(=O)N2CCC3(CCN(Cc4ccc(C)cc4Cl)C3)C2)c1` (centres unmarked) [Example 55, N-(1-(7-(2-chloro-4-methylbenzyl)-2,7-diazaspiro[4.4]nonane-2-carbonyl)-1H-pyrazol-4-yl)-N-methylacetamide], the IC50 (usually the midpoint of a concentration-inhibition curve) in experiment [1] was 100 to 1000 nM; in experiment [2], at most 100 nM. Further, the inhibition at 1 µM in experiment [1] and in experiment [2] was at least 75% each time.

For `CC(=O)N(C)c1cnn(C(=O)N2CCC3(CCN(Cc4cccc(Cl)c4C)C3)C2)c1` (centres unmarked) [Example 57, N-(1-(7-(3-chloro-2-methylbenzyl)-2,7-diazaspiro[4.4]nonane-2-carbonyl)-1H-pyrazol-4-yl)-N-methylacetamide], the 50% inhibitory concentration (IC50) in experiment [1] is 100 to 1000 nM; in experiment [2], at most 100 nM. Also, the inhibition at 1 µM in experiment [1] and in experiment [2] was at least 75% throughout.

In the case of `CC(=O)N(C)c1cnn(C(=O)N2CCC3(CCN(Cc4cccc(Cl)c4Cl)C3)C2)c1` (centres unmarked) [Example 59, N-(1-(7-(2,3-dichlorobenzyl)-2,7-diazaspiro[4.4]nonane-2-carbonyl)-1H-pyrazol-4-yl)-N-methylacetamide], in experiment [1], the IC50 is 100 to 1000 nM and the inhibition at 1 µM is at least 75%. In addition, in experiment [2], the IC50 was at most 100 nM and the inhibition at 1 µM was at least 75%.

`CC(=O)N(C)c1cnn(C(=O)N2CCC3(CCN(Cc4ccc(C(F)(F)F)c(N5CCOCC5)c4)C3)C2)c1` (centres unmarked) [Example 61, N-methyl-N-(1-(7-(3-morpholino-4-(trifluoromethyl)benzyl)-2,7-diazaspiro[4.4]nonane-2-carbonyl)-1H-pyrazol-4-yl)acetamide]: in experiment [1], the IC50 is at most 100 nM and the inhibition at 1 µM is at least 75%. Also, in experiment [2], the IC50 is at most 100 nM and the inhibition at 1 µM was at least 75%.

As to `CC(=O)N(C)c1cnn(C(=O)N2CCC3(CCN(Cc4cc(Cl)cc(N5CCOCC5)c4)C3)C2)c1` (centres unmarked) [Example 63, N-(1-(7-(3-chloro-5-morpholinobenzyl)-2,7-diazaspiro[4.4]nonane-2-carbonyl)-1H-pyrazol-4-yl)-N-methylacetamide], the inhibition at 1 µM in experiment [1] and in experiment [2] was at least 75% each time.

Turning to `CC(=O)N(C)c1cnn(C(=O)N2CCC3(CCN(Cc4cccc(C(F)(F)F)c4)C3)C2)c1` (centres unmarked) [Example 64, N-methyl-N-(1-(7-(3-(trifluoromethyl)benzyl)-2,7-diazaspiro[4.4]nonane-2-carbonyl)-1H-pyrazol-4-yl)acetamide], in experiment [1], the IC50 was in the range of 100 to 1000 nM and the inhibition at 1 µM was at least 75%. In addition, in experiment [2], the IC50 is at most 100 nM and the inhibition at 1 µM is at least 75%.

In the case of `CC(=O)N(C)c1cnn(C(=O)N2CCC3(CCN(Cc4ccc(N5CCCC5)c(Cl)c4)C3)C2)c1` (centres unmarked) [Example 67, N-(1-(7-(3-chloro-4-(pyrrolidin-1-yl)benzyl)-2,7-diazaspiro[4.4]nonane-2-carbonyl)-1H-pyrazol-4-yl)-N-methylacetamide], in experiment [1], the IC50 lay within 100 to 1000 nM and the inhibition at 1 µM was at least 75%. Moreover, in experiment [2], the IC50 is at most 100 nM and the inhibition at 1 µM was at least 75%.

On to `CC(=O)N(C)c1cnn(C(=O)N2CCC3(CCN(Cc4cc(N5CCOCC5)cc(C(F)(F)F)c4)C3)C2)c1` (centres unmarked) [Example 68, N-methyl-N-(1-(7-(3-morpholino-5-(trifluoromethyl)benzyl)-2,7-diazaspiro[4.4]nonane-2-carbonyl)-1H-pyrazol-4-yl)acetamide], for which, in experiment [1], the IC50 lay within 100 to 1000 nM and the inhibition at 1 µM was at least 75%. In experiment [2], the IC50 was at most 100 nM and the inhibition at 1 µM is at least 75%.

With `CC(=O)N(C)c1cnn(C(=O)N2CCC3(CCN(Cc4ccc(N5CCCC5)c(C(F)(F)F)c4)C3)C2)c1` (centres unmarked) [Example 69, N-methyl-N-(1-(7-(4-(pyrrolidin-1-yl)-3-(trifluoromethyl)benzyl)-2,7-diazaspiro[4.4]nonane-2-carbonyl)-1H-pyrazol-4-yl)acetamide], the inhibition at 1 µM in experiment [1] and in experiment [2] was at least 75% in each case.

(Values after patent US10323038B2, “Pyrazole compounds and methods of making and using same” (ABIDE THERAPEUTICS, INC., priority 2015, dated 2019).)
